Assay results: patent US7534871B2, “Preparation and use of carbohydrate-based bicyclic ring structures with antimicrobial and cytostatic activity” (Kemin Pharma B.V.B.A., priority 2004, dated 2009)

System: HIV-1 (IIIB)
Test: microbe, parasite or virus in culture
Type: cell-based
Settings: Human immunodeficiency virus 1, IIIB, CCRF-CEM; concentration required to inhibit HIV-induced cytopathicity in human CEM cell cultures by 50%

| SMILES | EC50 [µg/mL] |
| --- | --- |
| CO[C@@H]1[C@@H](OC)[C@H](Sc2ccccc2)O[C@@H]2COC(=O)CC/C=C/CCC(=O)O[C@@H]12 [KPE00001002] | > 100 |

System: HIV-2 (ROD)
Test: Anti-viral activity: HIV-2-induced cytopathicity in human CEM cell cultures
Type: cell-based
Settings: Human immunodeficiency virus 2, CCRF-CEM; concentration required to inhibit HIV-induced cytopathicity in human CEM cell cultures by 50%

| SMILES | EC50 [µg/mL] |
| --- | --- |
| CO[C@@H]1[C@@H](OC)[C@H](Sc2ccccc2)O[C@@H]2COC(=O)CC/C=C/CCC(=O)O[C@@H]12 [KPE00001002] | > 20 |

System: HSV-1 (KOS)
Test: Anti-viral activity: HSV-1-induced cytopathicity in human embryo fibroblast E6SM cell cultures
Type: cell-based, herpes simplex virus (HSV)
Settings: Human alphaherpesvirus 1, 50%

| SMILES | EC50 [µg/mL] |
| --- | --- |
| CO[C@@H]1[C@@H](OC)[C@H](Sc2ccccc2)O[C@@H]2COC(=O)CC/C=C/CCC(=O)O[C@@H]12 [KPE00001002] | > 16 |

System: HSV-2 (G)
Test: Anti-viral activity: HSV-2-induced cytopathicity in human embryo fibroblast E6SM cell cultures
Type: cell-based, herpes simplex virus (HSV)
Settings: Human alphaherpesvirus 2, 50%

| SMILES | EC50 [µg/mL] |
| --- | --- |
| CO[C@@H]1[C@@H](OC)[C@H](Sc2ccccc2)O[C@@H]2COC(=O)CC/C=C/CCC(=O)O[C@@H]12 [KPE00001002] | > 16 |

System: VV
Test: microbe, parasite or virus in culture
Type: cell-based
Settings: Orthopoxvirus vaccinia, E6SM, read-out: EC50 VV (E6SM)

| SMILES | EC50 [µg/mL] |
| --- | --- |
| CO[C@@H]1[C@@H](OC)[C@H](Sc2ccccc2)O[C@@H]2COC(=O)CC/C=C/CCC(=O)O[C@@H]12 [KPE00001002] | > 16 |

System: VZV OKA
Test: microbe, parasite or virus in culture
Type: cell-based, varicella zoster virus (VZV)
Settings: Human alphaherpesvirus 3, HEL, read-out: EC50 VZV (HEL) OKA

| SMILES | EC50 [µg/mL] |
| --- | --- |
| CO[C@@H]1[C@@H](OC)[C@H](Sc2ccccc2)O[C@@H]2COC(=O)CC/C=C/CCC(=O)O[C@@H]12 [KPE00001002] | > 20 |

System: VZV YS
Test: Anti-viral activity: VZV-induced plaque formation in HEL cell cultures, YS strain
Type: cell-based, varicella zoster virus (VZV)
Settings: Human alphaherpesvirus 3, VZV-induced plaque formation in human embryonic lung HEL cell cultures, 50%

| SMILES | EC50 [µg/mL] |
| --- | --- |
| CO[C@@H]1[C@@H](OC)[C@H](Sc2ccccc2)O[C@@H]2COC(=O)CC/C=C/CCC(=O)O[C@@H]12 [KPE00001002] | > 50 |

System: CMV AD-169 strain
Test: Anti-CMV activity: plaque reduction in HEL cells, AD-169 strain
Type: cell-based, human cytomegalovirus (CMV)
Settings: Human betaherpesvirus 5, AD169, HEL; Table 2; reduce virus plaque formation by 50%; virus input 100 PFU; read-out: IC50 CMV AD-169 Strain

| SMILES | IC50 [µg/mL] |
| --- | --- |
| CO[C@@H]1[C@@H](OC)[C@H](Sc2ccccc2)O[C@@H]2COC(=O)CC/C=C/CCC(=O)O[C@@H]12 [KPE00001002] | > 20 |

System: murine leukemia cells (L1210/0)
Test: Cytostatic activity: inhibition of proliferation of L1210/0 cells
Type: cell-based
Settings: Mus musculus, L1210/0; 50% inhibitory concentration, cell proliferation; read-out: IC50 L1210/0
Protocol: (§1) The compounds were tested for anti-tumor activity via the inhibitory effects on the proliferation of murine leukemia cells (L1210/0), murine mammary carcinoma cells (FM3A), human T-lymphocyte cells (Molt4/C8, CEM/0) and human cervix carcinoma cells (HeLa).

| SMILES | IC50 [µg/mL] |
| --- | --- |
| CO[C@@H]1[C@@H](OC)[C@H](Sc2ccccc2)O[C@@H]2COC(=O)CC/C=C/CCC(=O)O[C@@H]12 [KPE00001002] | > 200 |

System: murine mammary carcinoma cells (FM3A)
Test: Cytostatic activity: inhibition of proliferation of FM3A cells
Type: cell-based
Settings: Mus musculus, 50% inhibitory concentration, cell proliferation, read-out: IC50 FM3A/0
Protocol: as §1

| SMILES | IC50 [µg/mL] |
| --- | --- |
| CO[C@@H]1[C@@H](OC)[C@H](Sc2ccccc2)O[C@@H]2COC(=O)CC/C=C/CCC(=O)O[C@@H]12 [KPE00001002] | > 200 |

System: human T-lymphocyte cells (Molt4/C8)
Test: Cytostatic activity: inhibition of proliferation of Molt4/C8 cells
Type: cell-based
Settings: Molt4/C8, 50% inhibitory concentration, cell proliferation, read-out: IC50 Molt4/C8
Protocol: as §1

| SMILES | IC50 [µg/mL] |
| --- | --- |
| CO[C@@H]1[C@@H](OC)[C@H](Sc2ccccc2)O[C@@H]2COC(=O)CC/C=C/CCC(=O)O[C@@H]12 [KPE00001002] | > 200 |

System: human T-lymphocyte cells (CEM/0)
Test: Cytostatic activity: inhibition of proliferation of CEM/0 cells
Type: cell-based
Settings: CCRF-CEM, 50% inhibitory concentration, cell proliferation, read-out: IC50 CEM/0
Protocol: as §1

| SMILES | IC50 [µg/mL] |
| --- | --- |
| CO[C@@H]1[C@@H](OC)[C@H](Sc2ccccc2)O[C@@H]2COC(=O)CC/C=C/CCC(=O)O[C@@H]12 [KPE00001002] | > 200 |

System: human cervix carcinoma cells (HeLa)
Test: Cytostatic activity: inhibition of proliferation of HeLa cells
Type: cell-based
Settings: 50% inhibitory concentration, cell proliferation
Protocol: as §1

| SMILES | IC50 [µg/mL] |
| --- | --- |
| CO[C@@H]1[C@@H](OC)[C@H](Sc2ccccc2)O[C@@H]2COC(=O)CC/C=C/CCC(=O)O[C@@H]12 [KPE00001002] | > 200 |

System: E. faecalis ATTC29212 LMG 8222
Test: Anti-bacterial activity, Bioscreen C growth curve: E. faecalis
Type: cell-based
Settings: Enterococcus faecalis, LMG8222, 35° C., 16 hours, negative control = 100, read-out: % of growth at 25 PPM compared to the negative control, E. faecalis ATTC29212 LMG 8222
Protocol: (§2) For the determination of the anti-bacterial and anti-fungal activity the Bioscreen C Analyser Labsystems, Finland, was used. This is an automated reader-incubator. It measures growth continuously by vertical photometry (optical density), processes the data and provides a print out of the results. The area under the growth curve is automatically determined via the Biolink software.
(§3) The inoculum size of the bacteria is standardized to approximately 5×10^5 CFU/ml.
(§4) For bacteria, the 100-honey-well plates containing test chemical, Mueller-Hinton broth and inoculum (=sample) are incubated at 35° C. for 16 hours. Also wells without inoculum are incubated (=blanco). Yeasts are incubated 35° C. for 24 hours in RPMI 1640+MOPS buffer at 165 mM. Moulds also in RPMI 1640+MOPS buffer at 165 mM are incubated 25° C. for 5 days. All micro-organisms are screened against a known concentration of the reference antibiotics or antimycotics such as vancomycin, penicillin G, gentamicin or amphotericin B. The growth curve and the area under the growth curve can be determined using the Biolink software; this is illustrated in FIG. 1.
(§5) The area of the blanco is subtracted from the area of the sample, this number (delta) gives us an indication of the biological activity of the molecules tested and can be expressed as a % of growth at a specific dose compared to a negative control that has a value of 100, illustrated in FIG. 2. Screening of each dose of a specific compound is repeated 5 times. The dose used for all new molecules in all tests is 25 PPM or 25 μg/ml.
(§6) In Table 4 the results of the anti-bacterial activity is given for the new molecules. The micro-organisms used are Staphylococcus aureus, MRSA, VRE, Enterococcus faecalis, Salmonella typhimurium and Pseudomonas aeruginosa.

| SMILES | activity at 25 ppm [%] |
| --- | --- |
| CO[C@@H]1[C@@H](OC)[C@H](Sc2ccccc2)O[C@@H]2COC(=O)CC/C=C/CCC(=O)O[C@@H]12 [KPE00001002] | 94.9 |

System: VRE ATCC700221
Test: Anti-bacterial activity, Bioscreen C growth curve: VRE
Type: cell-based, vancomycin-resistant Enterococcus (VRE)
Settings: Enterococcus, 35° C., 16 hours, negative control = 100, read-out: % of growth at 25 PPM compared to the negative control, VRE ATCC700221
Protocol: as §2, §3, §4, §5, §6

| SMILES | activity at 25 ppm [%] |
| --- | --- |
| CO[C@@H]1[C@@H](OC)[C@H](Sc2ccccc2)O[C@@H]2COC(=O)CC/C=C/CCC(=O)O[C@@H]12 [KPE00001002] | 94 |

System: S. aureus ATTC29213 LMG10147
Test: Anti-bacterial activity, Bioscreen C growth curve: S. aureus
Type: cell-based
Settings: Staphylococcus aureus, 35° C., 16 hours, negative control = 100, read-out: % of growth at 25 PPM compared to the negative control, S. aureus ATTC29213 LMG10147
Protocol: as §2, §3, §4, §5, §6

| SMILES | activity at 25 ppm [%] |
| --- | --- |
| CO[C@@H]1[C@@H](OC)[C@H](Sc2ccccc2)O[C@@H]2COC(=O)CC/C=C/CCC(=O)O[C@@H]12 [KPE00001002] | 93.2 |

System: MRSA ATCC33591
Test: Anti-bacterial activity, Bioscreen C growth curve: MRSA
Type: cell-based, methicillin-resistant Staphylococcus aureus (MRSA)
Settings: Staphylococcus aureus, ATCC 33591 / LMG10147 / MRSA; 25 PPM; 35° C., 16 hours; negative control = 100; read-out: % of growth at 25 PPM compared to the negative control, MRSA ATCC33591 LMG10147
Protocol: as §2, §3, §4, §5, §6

| SMILES | activity at 25 ppm [%] |
| --- | --- |
| CO[C@@H]1[C@@H](OC)[C@H](Sc2ccccc2)O[C@@H]2COC(=O)CC/C=C/CCC(=O)O[C@@H]12 [KPE00001002] | 100 |

System: P. aeruginosa ATCC27853 LMG16217
Test: Anti-bacterial activity, Bioscreen C growth curve: P. aeruginosa
Type: cell-based, Pseudomonas aeruginosa
Settings: Pseudomonas aeruginosa; 25 PPM; 35° C., 16 hours; negative control = 100; read-out: % of growth at 25 PPM compared to the negative control, P. aeruginosa ATCC27853 LMG16217
Protocol: as §2, §3, §4, §5, §6

| SMILES | activity at 25 ppm [%] |
| --- | --- |
| CO[C@@H]1[C@@H](OC)[C@H](Sc2ccccc2)O[C@@H]2COC(=O)CC/C=C/CCC(=O)O[C@@H]12 [KPE00001002] | 92.2 |

System: S. typhimurium ATTC700408
Test: Anti-bacterial activity, Bioscreen C growth curve: S. typhimurium
Type: cell-based
Settings: Salmonella enterica, LMG16217 / TYPHIMURIUM, 35° C., 16 hours, negative control = 100, read-out: % of growth at 25 PPM compared to the negative control, S. typhimurium ATTC700408 LMG16217
Protocol: as §2, §3, §4, §5, §6

| SMILES | activity at 25 ppm [%] |
| --- | --- |
| CO[C@@H]1[C@@H](OC)[C@H](Sc2ccccc2)O[C@@H]2COC(=O)CC/C=C/CCC(=O)O[C@@H]12 [KPE00001002] | 93.7 |

System: Candida albicans IHEM 10284 - ATCC 24433
Test: Anti-fungal activity, Bioscreen C growth curve: Candida albicans (yeast)
Type: cell-based
Settings: Candida albicans, ATCC24433; 25 PPM; 35° C., 24 hours; negative control = 100; read-out: % of growth at a dose of 25 PPM compared to the negative control, Candida albicans IHEM 10284 - ATCC 24433
Protocol: as §2
The inoculum size of the yeast is standardized to 0.5-2.5×10^3 CFU/ml.
as §4, §5
(§7) In Table 5 the anti-fungal activity is given for the new molecules. The micro-organisms used were Candida albicans (a typical yeast) and Microsporum gypseum (a typical mold).
(§8) Also for the determination of the anti-fungal activity the Bioscreen C Analyser Labsystems Oy, Finland was used. It measures growth continuously by vertical photometry (optical density), processes the data and provides a print out of the results. The area under the growth curve is automatically determined via the Biolink software.
(§9) The inoculum size of the yeast is standardized to 0.5-2.5×10^3 CFU/ml. The inoculum size of the mould is standardized to 0.4-5.0×10^4 CFU/ml. Yeasts are incubated 35° C. for 24 hours in RPMI 1640+MOPS buffer at 165 mM. Moulds also in RPMI 1640+MOPS buffer at 165 mM are incubated 25° C. for 5 days.
(§10) As a control, all micro-organisms are screened against some reference antibiotics with known MIC. Screening of each dose of a specific compound is repeated 5 times.

| SMILES | activity at 25 ppm [%] |
| --- | --- |
| CO[C@@H]1[C@@H](OC)[C@H](Sc2ccccc2)O[C@@H]2COC(=O)CC/C=C/CCC(=O)O[C@@H]12 [KPE00001002] | 105 |

System: Microsporum gypseum IHEM 3999 - ATCC 14683
Test: Anti-fungal activity, Bioscreen C growth curve: Microsporum gypseum (mold)
Type: cell-based
Settings: Nannizzia gypsea, ATCC14683, 120 h; 25 PPM; 25° C., 5 days; negative control = 100; read-out: % of growth at a dose of 25 PPM compared to the negative control, Microsporum gypseum IHEM 3999 - ATCC 14683
Protocol: as §2
The inoculum size of the mould is standardized to 0.4-5.0×10^4 CFU/ml.
as §4, §5, §7, §8, §9, §10

| SMILES | activity at 25 ppm [%] |
| --- | --- |
| CO[C@@H]1[C@@H](OC)[C@H](Sc2ccccc2)O[C@@H]2COC(=O)CC/C=C/CCC(=O)O[C@@H]12 [KPE00001002] | 64 |
